“Also recorded” adds a separate entry of the source.
Key:
[1] = tested on: EcRs (lepidopteran and non-lepidopteran); assay: Two-hybrid gene switch assays, statements across the set of ten EcRs in NIH3T3 cells
[2] = tested on: D. melanogaster BII cell line (expresses the ecdysteroid receptor complex EcR-USP); assay: Drosophila melanogaster BII cell line bioassay (turbidometric; agonist and antagonist versions); conditions: Drosophila BII cell line, Example Two

CC(C)(O)C(CCC(C)(O)C1CCC2(O)C3=CC(=O)C4CC(O)C(O)CC4(C)C3CCC12C)OC(=O)c1ccc[nH]1 (centres unmarked) [canescensterone]
selectivity / relative potency between EcRs [1]: selective for non-lepidopteran EcRs; also recorded: BaEcR>E274V/V390I/Y410E mutant-CfEcR
EC50 [2]: 0.53 nM

Source: US8536354B2, “Steroidal ligands and their use in gene switch modulation” (Intrexon Corporation, priority 2008, dated 2013)
